Data published in patent publication US9540323B2 (BRISTOL-MYERS SQUIBB COMPANY, priority 2012, dated 2017).

Columns and labels:
[1] = tested on: human platelet rich plasma (PRP); assay: ADP induced platelet aggregation assay; conditions: Homo sapiens, Platelet, 5 min, read-out: PA IC50 (μM) @ 10 μM ADP, human PRP, 10 μM ADP, AUC at 5 minute
[2] = target: cloned human P2Y1 receptors (Homo sapiens (Human), UniProt P47900); assay: Binding Assay B - Scintillation Proximity Assay (SPA) for P2Y1 binding, [33P] 2MeS-ADP; conditions: SPA, 0.3 nM [33P] 2MeS-ADP, Cheng-Prusoff; read-out: P2Y1 Ki (nM) using binding assay B
Protocol: Binding Assay B—Scintillation Proximity Assay (SPA) for P2Y1 Binding
A SPA membrane binding assay was used to identify inhibitors of [^33P] […] Reactions were allowed to proceed to completion at room temperature for 1 hour followed by centrifugation of the plate for 5 min. About 40 μL of the aqueous solution was aspirated. Plates were sealed and the [^33P]

Chain of cloned human P2Y1 receptors (P47900 whole entry): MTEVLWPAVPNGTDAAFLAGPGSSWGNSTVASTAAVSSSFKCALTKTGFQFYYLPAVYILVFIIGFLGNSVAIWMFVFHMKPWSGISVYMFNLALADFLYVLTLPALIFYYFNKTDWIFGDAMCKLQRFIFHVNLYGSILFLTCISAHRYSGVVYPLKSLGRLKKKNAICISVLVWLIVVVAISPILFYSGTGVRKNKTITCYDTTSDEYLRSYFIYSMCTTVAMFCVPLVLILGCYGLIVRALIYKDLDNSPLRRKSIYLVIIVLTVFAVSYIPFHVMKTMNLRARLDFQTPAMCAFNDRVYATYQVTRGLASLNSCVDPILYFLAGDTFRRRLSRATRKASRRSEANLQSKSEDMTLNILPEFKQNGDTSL

| SMILES | IC50 [1] [µM] | Ki [2] [nM] |
| --- | --- | --- |
| CC(C)(C)CN1CCC(c2ccc(NC(=O)Nc3ccccc3N3CC(C)(C)c4c(C(F)(F)F)ccc(O)c43)cc2)CC1 [Example 2, 1-(2-(7-Hydroxy-3,3-dimethyl-4-(trifluoromethyl)indolin-1-yl)phenyl)-3-(4-(1-neopentylpiperidin-4-yl)phenyl)urea] | 0.13 | 3.4 |
| CC1(C)CN(c2ccccc2NC(=O)NC2CCN(CC(F)(F)F)CC2)c2c(O)ccc(C(F)(F)F)c21 [Example 3, 1-(2-(7-Hydroxy-3,3-dimethyl-4-(trifluoromethyl)indolin-1-yl)phenyl)-3-(1-(2,2,2-trifluoroethyl)piperidin-4-yl)urea] | 3.1 | 4.9 |
| CCC1(CC)CN(c2ccccc2NC(=O)Nc2ccc(C3CCN(CC(C)(C)C)CC3)cc2)c2c(O)ccc(F)c21 [Example 4, 1-(2-(3,3-Diethyl-4-fluoro-7-hydroxyindolin-1-yl)phenyl)-3-(4-(1-neopentylpiperidin-4-yl)phenyl)urea] | 0.36 | 5.6 |
| CCC1(CC)CN(c2ccccc2NC(=O)Nc2ccc(OC(F)(F)F)cc2)c2c(O)cc(F)cc21 [Example 5, 1-(2-(3,3-Diethyl-5-fluoro-7-hydroxyindolin-1-yl)phenyl)-3-(4-(trifluoromethoxy)phenyl)urea] | 1.05 | 16 |
| CC1(C)CN(c2ccccc2NC(=O)Nc2csc(Cl)n2)c2c(O)ccc(Br)c21 [Example 6, 1-(2-(4-Bromo-7-hydroxy-3,3-dimethylindolin-1-yl)phenyl)-3-(2-chlorothiazol-4-yl)urea] | 0.31 | 24.4 |
| CCC1(CC)CN(c2ccccc2NC(=O)Nc2ccc(C3CCCN3CC(C)(C)C)cc2)c2c(O)cccc21 (centres unmarked) [Example 7, 1-(2-(3,3-Diethyl-7-hydroxyindolin-1-yl)phenyl)-3-(4-(1-neopentylpyrrolidin-2-yl)phenyl)urea] | 0.55 | 8.6 |
| CCC1(CC)CN(c2ccccc2NC(=O)Nc2ccc(C3CCCN3CC(C)C)cc2)c2c(O)cccc21 (centres unmarked) [Example 8] | 0.31 | 18.6 |
| CCC1(CC)CN(c2ccccc2NC(=O)Nc2nc3ccc(Cl)cc3s2)c2c(O)cccc21 [Example 9, 1-(6-Chlorobenzo[d]thiazol-2-yl)-3-(2-(3,3-diethyl-7-hydroxyindolin-1-yl)phenyl)urea] | 0.39 | 14.2 |
| CCC1(CC)CN(c2ccccc2NC(=O)Nc2nc3ccc(C)cc3s2)c2c(O)cccc21 [Example 10, 1-(2-(3,3-Diethyl-7-hydroxyindolin-1-yl)phenyl)-3-(6-methylbenzo[d]thiazol-2-yl)urea] | 0.54 | 7.6 |
| CC(C)CN1CCCC1c1ccc(NC(=O)Nc2ccccc2N2CC(C)(C)c3cccc(O)c32)cc1 (centres unmarked) [Example 11, 1-(2-(7-Hydroxy-3,3-dimethylindolin-1-yl)phenyl)-3-(4-(1-isobutylpyrrolidin-2-yl)phenyl)urea] | 1.08 | 36.8 |
| CC1(C)CN(c2ccccc2NC(=O)Nc2ccc(OC(F)(F)F)cc2)c2c(O)ccc(C(F)(F)F)c21 [Example 12, 1-(2-(7-Hydroxy-3,3-dimethyl-4-(trifluoromethyl)indolin-1-yl)phenyl)-3-(4-(trifluoromethoxy)phenyl)urea] | 0.2 | 5 |
| CC(C)(C)c1ccc(NC(=O)Nc2ccccc2N2CC(C)(C)c3c(C(F)(F)F)ccc(O)c32)cc1 [Example 13, 1-(4-tert-Butylphenyl)-3-(2-(7-hydroxy-3,3-dimethyl-4-(trifluoromethyl)indolin-1-yl)phenyl)urea] | 0.13 | 8.2 |
| CC1(C)CN(c2ccccc2NC(=O)Nc2ccc(F)cc2F)c2c(O)ccc(C(F)(F)F)c21 [Example 14, 1-(2,4-Difluorophenyl)-3-(2-(7-hydroxy-3,3-dimethyl-4-(trifluoromethyl)indolin-1-yl)phenyl)urea] | 0.48 | 5.2 |
| Cc1nc(NC(=O)Nc2ccccc2N2CC(C)(C)c3c(C(F)(F)F)ccc(O)c32)cs1 [Example 15, 1-(2-(7-Hydroxy-3,3-dimethyl-4-(trifluoromethyl)indolin-1-yl)phenyl)-3-(2-methylthiazol-4-yl)urea] | 0.95 | 7.3 |
| CC1(C)CN(c2ccccc2NC(=O)Nc2csc(Cl)n2)c2c(O)ccc(C(F)(F)F)c21 [Example 16, 1-(2-Chlorothiazol-4-yl)-3-(2-(7-hydroxy-3,3-dimethyl-4-(trifluoromethyl)indolin-1-yl)phenyl)urea] | 0.12 | 6.2 |
| CC1(C)CN(c2ccccc2NC(=O)Nc2ccc(C(F)(F)F)cc2)c2c(O)ccc(C(F)(F)F)c21 [Example 17, 1-(2-(7-Hydroxy-3,3-dimethyl-4-(trifluoromethyl)indolin-1-yl)phenyl)-3-(4-(trifluoro-methyl)phenyl)urea] | 0.27 | 16.4 |

| SMILES | IC50 [1] [µM] | Ki [2] [nM] |
| --- | --- | --- |
| CC1(C)CN(c2ccccc2NC(=O)Nc2nc3ccc(F)cc3s2)c2c(O)ccc(C(F)(F)F)c21 [Example 18, 1-(6-Fluorobenzo[d]thiazol-2-yl)-3-(2-(7-hydroxy-3,3-dimethyl-4-(trifluoromethyl)indolin-1-yl)phenyl)urea] | 0.17 | 12.4 |
| CC1(C)CN(c2ccccc2NC(=O)Nc2nc3ccc(Cl)cc3s2)c2c(O)ccc(C(F)(F)F)c21 [Example 19, 1-(6-Chlorobenzo[d]thiazol-2-yl)-3-(2-(7-hydroxy-3,3-dimethyl-4-(trifluoromethyl)indolin-1-yl)phenyl)urea] | 0.12 | 23.6 |
| CCN1CCc2nc(NC(=O)Nc3ccccc3N3CC(C)(C)c4c(C(F)(F)F)ccc(O)c43)sc2C1 [Example 20, 1-(5-Ethyl-4,5,6,7-tetrahydrothiazolo[5,4-c]pyridin-2-yl)-3-(2-(7-hydroxy-3,3-dimethyl-4-(trifluoromethyl)indolin-1-yl)phenyl)urea] | 0.95 | 18.6 |
| CC(C)CN1CCc2nc(NC(=O)Nc3ccccc3N3CC(C)(C)c4c(C(F)(F)F)ccc(O)c43)sc2C1 [Example 21, 1-(2-(7-Hydroxy-3,3-dimethyl-4-(trifluoromethyl)indolin-1-yl)phenyl)-3-(5-isobutyl-4,5,6,7-tetrahydrothiazolo[5,4-c]pyridin-2-yl)urea] | 0.07 | 7.9 |
| CC(C)(C)CN1CCc2nc(NC(=O)Nc3ccccc3N3CC(C)(C)c4c(C(F)(F)F)ccc(O)c43)sc2C1 [Example 22, 1-(2-(7-Hydroxy-3,3-dimethyl-4-(trifluoromethyl)indolin-1-yl)phenyl)-3-(5-neopentyl-4,5,6,7-tetrahydrothiazolo[5,4-c]pyridin-2-yl)urea] | 0.21 | 8 |
| CC1(C)CN(c2ccccc2NC(=O)Nc2nc3c(s2)CN(CC2CC2)CC3)c2c(O)ccc(C(F)(F)F)c21 [Example 23, 1-(5-(Cyclopropylmethyl)-4,5,6,7-tetrahydrothiazolo[5,4-c]pyridin-2-yl)-3-(2-(7-hydroxy-3,3-dimethyl-4-(trifluoromethyl)indolin-1-yl)phenyl)urea] | 1.01 | 10.4 |
| CCC1(CC)CN(c2ccccc2NC(=O)Nc2ccc(OC(F)(F)F)cc2)c2c(O)ccc(C(F)(F)F)c21 [Example 24, 1-(2-(3,3-Diethyl-7-hydroxy-4-(trifluoromethyl)indolin-1-yl)phenyl)-3-(4-(trifluoromethoxy)phenyl)urea] | 0.22 | 7.6 |
| CCC1(CC)CN(c2ccccc2NC(=O)Nc2ccc(C3CCN(CC(C)(C)C)CC3)cc2)c2c(O)ccc(C(F)(F)F)c21 [Example 25, 1-(2-(3,3-Diethyl-7-hydroxy-4-(trifluoromethyl)indolin-1-yl)phenyl)-3-(4-(1-neopentylpiperidin-4-yl)phenyl)urea] | 0.26 | 6.3 |
| CCC1(CC)CN(c2ccccc2NC(=O)Nc2ccc(C(C)(C)C)cc2)c2c(O)ccc(F)c21 [Example 26, 1-(4-tert-Butylphenyl)-3-(2-(3,3-diethyl-4-fluoro-7-hydroxyindolin-1-yl)phenyl)urea] | 0.98 | 5.1 |
| CCc1ccc(NC(=O)Nc2ccccc2N2CC(CC)(CC)c3c(F)ccc(O)c32)cc1 [Example 27, 1-(2-(3,3-Diethyl-4-fluoro-7-hydroxyindolin-1-yl)phenyl)-3-(4-ethylphenyl)urea] | 1.02 | 3.1 |
| CCC1(CC)CN(c2ccccc2NC(=O)Nc2ccc(C3CCN(CC(C)C)CC3)cc2)c2c(O)ccc(F)c21 [Example 28, 1-(2-(3,3-Diethyl-4-fluoro-7-hydroxyindolin-1-yl)phenyl)-3-(4-(1-isobutylpiperidin-4-yl)phenyl)urea] | 0.54 | 8.1 |
| CCC1(CC)CN(c2ccccc2NC(=O)Nc2ccc(C3CCCN3CC(C)(C)C)cc2)c2c(O)ccc(F)c21 (centres unmarked) [Example 29, 1-(2-(3,3-Diethyl-4-fluoro-7-hydroxyindolin-1-yl)phenyl)-3-(4-(1-neopentylpyrrolidin-2-yl)phenyl)urea] | 0.3 | 3.6 |
| CCC1(CC)CN(c2ccccc2NC(=O)Nc2ccc(C3CCCN3CC(C)C)cc2)c2c(O)ccc(F)c21 (centres unmarked) [Example 30, 1-(2-(3,3-Diethyl-4-fluoro-7-hydroxyindolin-1-yl)phenyl)-3-(4-(1-isobutylpyrrolidin-2-yl)phenyl)urea] | 0.28 | 5.1 |
| CCC1(CC)CN(c2ccccc2NC(=O)Nc2csc(Cl)n2)c2c(O)ccc(F)c21 [Example 31, 1-(2-Chlorothiazol-4-yl)-3-(2-(3,3-diethyl-4-fluoro-7-hydroxyindolin-1-yl)phenyl)urea] | 0.53 | 3.3 |
| CCSc1nsc(NC(=O)Nc2ccccc2N2CC(CC)(CC)c3c(F)ccc(O)c32)n1 [Example 33, 1-(2-(3,3-Diethyl-4-fluoro-7-hydroxyindolin-1-yl)phenyl)-3-(3-(ethylthio)-1,2,4-thiadiazol-5-yl)urea] | 0.55 | 7.6 |
